According to patent publication US12503425B2, “Methods of treating or controlling cytotoxic cerebral edema” (Aeromics, Inc., priority 2012, dated 2025):

How the values were obtained:
cerebral edema [1] = assay: Mouse water toxicity model, brain water content; assay type: in vivo; details: at 30 minutes
Procedure: Mouse Water Toxicity Model-Brain Water Content: Compounds are also tested for the ability to reduce CE in mice exposed to the water shock by examining brain water content. Mice are treated with a water bolus as described above, then sacrificed at 30 minutes. Brain water content is assessed by fresh/dry weight ratio, i.e. the brains are weighed immediately then desiccated in an oven at 100° C. for 24 h and dry weights measured (brain water percentage=[…]).

cerebral edema [2] = assay: Mouse water toxicity model, brain volume by MRI; details: 0.76 mg/kg, versus no drug
Procedure: The first time point at 5.67 min coincides with the scan slice at the middle of the brain during the first post-injection scan. Other time points are placed in a similar manner. The data is fitted to a single exponential equation: V/V0=Vi+dVmax(1−e^(−kt)); • where V/V0=relative brain volume, Vi=initial relative brain volume, dVmax=maximum change in relative brain volume, k=first order rate constant (min^−1), and t=time in minutes.
Mouse Water Toxicity Model-Brain Volume by Magnetic Resonance Imaging (MRI): MRI is used to measure changes in brain volume in response to water shock, using the water toxicity model. As described for the survival and brain water content studies above, mice are injected, IP, with a water bolus alone or water bolus and test compound at 0.76 mg/kg, and changes in brain volume as detected by MRI are monitored. […] This imaging method is found to provide sufficient contrast and resolution to sensitively detect changes in total brain volume in the mouse water toxicity model for cerebral edema. […] The cross sectional area of the brain in each imaging slice is measured by manual region-of-interest selection using ImageJ. Brain volumes are then calculated for each scan by summing the individual cross sectional brain areas and multiplying by the slice thickness (0.7 mm).

[3] = Bioconversion of Compound 5 to Compound 1 in mouse plasma in vitro; assay type: in vitro ADME; details: 20° C.
[4] = test system: middle cerebral artery occlusion (MCAo); assay: Mouse MCAo stroke model, neurological outcome (5 point scale); assay type: in vivo; details: 5 mg/kg i.p. every three hours
Source text: An improvement in neurological outcome is observed for animals given Compound 5. Control animals have an average neurological score of 2.77±0.66, while animals given Compound 5 have an average score of 0.88±0.31 (FIG. 13, inset, P=0.025, n=9 per treatment).

AQP = AQP inhibition cell-based assay (Table 1)

O=C(Nc1cc(C(F)(F)F)cc(C(F)(F)F)c1)c1cc(Cl)ccc1O [Compound 1]
reduction in CE (brain water content) (cerebral edema [1]; 0.76 mg/kg): 11.2%
reduction in CE (brain water content) (cerebral edema [1]; 7.6 mg/kg): 15.9%
detection in plasma samples from mice injected IP with Compound 5: undetectable
reduction of the rate of CE development (cerebral edema [2]): 2.5 fold

O=C(Nc1cc(C(F)(F)F)cc(C(F)(F)F)c1)c1cc(Cl)ccc1OP(=O)(O)O [Compound 5]
time sufficient to render Compound 5 undetectable [3]: Less than 5 minutes
progression of neurological state (in words) [4]: did not progress into a state of severe paralysis or death

O=C(Nc1ccccc1)c1ccccc1 [Phenylbenzamide]
AQP inhibition Cell-Based Assay (%) (AQP): 4.5%
